Test results as given in patent US8138175B2, “Heterocyclyl compounds” (Hoffmann-La Roche Inc., priority 2008, dated 2012).

target: T1, human chemokine receptor 2 isoform B (Homo sapiens, UniProt P41597); assay: Calcium mobilization assay; type: cell-based; settings: Ca mobilization assay for CCR2; CHOK1-CCR2B-A5 cells; antagonist activity against 20 nM MCP-1; FLIPR, Fluo-4
T1 construct: host or cells: CHOK1-CCR2B-A5 (CHO-K1) cells
T1 sequence (P41597 1-360 isoform P41597-2): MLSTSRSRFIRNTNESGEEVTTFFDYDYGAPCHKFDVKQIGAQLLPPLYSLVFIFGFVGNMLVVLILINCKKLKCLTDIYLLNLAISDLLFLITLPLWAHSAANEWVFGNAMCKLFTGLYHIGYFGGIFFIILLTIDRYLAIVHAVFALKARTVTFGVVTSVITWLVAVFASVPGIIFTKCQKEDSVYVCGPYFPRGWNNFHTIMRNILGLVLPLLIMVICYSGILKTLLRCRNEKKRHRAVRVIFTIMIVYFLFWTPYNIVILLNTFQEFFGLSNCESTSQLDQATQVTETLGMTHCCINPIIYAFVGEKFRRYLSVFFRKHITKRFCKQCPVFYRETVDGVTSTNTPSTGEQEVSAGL
Protocol: Calcium Mobilization Assay
CHOK1-CCR2B-A5 cells (from Euroscreen) stably overexpressing the human chemokine receptor 2 isoform B were cultured in Nutrient Hams F12 medium supplemented with 5% FBS, 100 U/ml penicillin, 100 μg/ml streptomycin, 400 μg/ml G418 and 5 μg/ml puromycin.
For the assay cells were grown overnight in 384-well black clear flat bottom polystyrene plates (Costar) at 37° C. at 5% CO2. After washing with DMEM, 20 mM Hepes, 2.5 mM probenecid, 0.1% BSA (DMEM assay buffer) cells were loaded with 4 μM Fluo-4 in the same DMEM assay buffer for 2 hours at 30° C. Excess dye was removed and cells were washed with DMEM assay buffer. 384-well compound plates were prepared with DMEM assay buffer/0.5% dimethyl sulfoxide with or without various concentrations of test compounds. Usually compounds were tested for agonist and antagonist activity.
Test compounds were added to the assay plate and agonist activity was monitored as fluorescence for 80 seconds with a FLIPR (488 nm excitation; 510-570 nm emission; Molecular Devices). After 20-30 min. of incubation at 30° C., 20 nM MCP-1 (R&D; Roche) was added and fluorescence was monitored again for 80 seconds. Increases in intracellular calcium are reported as maximum fluorescence after agonist exposure minus basal fluorescence before exposure. Antagonist activity is indicated as inhibitor concentration required for 50% inhibition of specific calcium increases.

SMILES | IC50 [nM]
C[C@H]1C(=O)N(C[C@H](O)CCN2CCC3(CC3)[C@H](O)C2)CCN1c1ccc(Cl)c(Cl)c1 [Example 104, (S)-4-(3,4-Dichloro-phenyl)-1-[(R)-2-hydroxy-4-((S)-4-hydroxy-6-aza-spiro[2.5]oct-6-yl)-butyl]-3-methyl-piperazin-2-one] | 203
O=C1CCN(c2ccc(Cl)c(Cl)c2)CCN1[C@H](CO)CCN1CCC2(CC2)[C@H](O)C1 [Example 2, 1-(3,4-Dichloro-phenyl)-4-[(S)-3-((S)-4-hydroxy-6-aza-spiro[2.5]oct-6-yl)-1-hydroxymethyl-propyl]-[1,4]diazepan-5-one] | 10
O=C1CCN(c2cccc(C(F)(F)F)c2)CCN1[C@@H](CO)CCN1CCC2(CC2)[C@H](O)C1 [Example 9, 4-[(R)-3-((S)-4-Hydroxy-6-aza-spiro[2.5]oct-6-yl)-1-hydroxymethyl-propyl]-1-(3-trifluoromethyl-phenyl)-[1,4]diazepan-5-one] | 180
C[C@H]1C(=O)N(CCCN2CCC3(CC3)[C@H](O)C2)CCN1c1ccc2ccccc2c1 [Example 82, (S)-1-[3-((S)-4-Hydroxy-6-aza-spiro[2.5]oct-6-yl)-propyl]-3-methyl-4-naphthalen-2-yl-piperazin-2-one] | 73
C[C@H]1C(=O)N(CCCN2CCC3(CC3)[C@H](O)C2)CCN1c1ccc(Cl)c(OC(F)(F)F)c1 [Example 84, (S)-4-(4-Chloro-3-trifluoromethoxy-phenyl)-1-[3-((S)-4-hydroxy-6-aza-spiro[2.5]oct-6-yl)-propyl]-3-methyl-piperazin-2-one] | 15
O=C1CCN(c2cccc(C(F)(F)F)c2)CCN1C(CO)CCN1CCC2(CC2)[C@H](O)C1 (stereo partly drawn) [Example 16, 4-[(R,S)-3-((S)-4-Hydroxy-6-aza-spiro[2.5]oct-6-yl)-1-hydroxymethyl-propyl]-1-(3-trifluoromethyl-phenyl)-[1,4]diazepan-5-one] | 10
C[C@H]1C(=O)N(CCCN2CCC3(CC3)[C@H](O)C2)CCN1c1ccc(Cl)c(Cl)c1 [Example 74, (S)-4-(3,4-Dichloro-phenyl)-1-[3-((S)-4-hydroxy-6-aza-spiro[2.5]oct-6-yl)-propyl]-3-methyl-piperazin-2-one] | 5
C[C@H]1C(=O)N(C[C@@H](O)CN2CCC3(CC3)[C@H](O)C2)CCN1c1ccc(Cl)c(Cl)c1 [Example 99, (S)-4-(3,4-dichloro-phenyl)-1-[(S)-2-hydroxy-3-((S)-4-hydroxy-6-aza-spiro[2.5]oct-6-yl)-propyl]-3-methyl-piperazin-2-one] | 8
C[C@H]1C(=O)N(CCCN2CCC3(CC3)[C@H](O)C2)CCN1c1ccc(C(F)(F)F)c(Cl)c1 [Example 83, (S)-4-(3-Chloro-4-trifluoromethyl-phenyl)-1-[3-((S)-4-hydroxy-6-aza-spiro[2.5]oct-6-yl)-propyl]-3-methyl-piperazin-2-one] | 2
C[C@H]1C(=O)N(CCCN2CCC3(CC3)[C@H](O)C2)CCN1c1ccc(F)c(Cl)c1 [Example 79, (S)-4-(3-Chloro-4-fluoro-phenyl)-1-[3-((S)-4-hydroxy-6-aza-spiro[2.5]oct-6-yl)-propyl]-3-methyl-piperazin-2-one] | 29
CC1C(=O)N(CCCN2CCC3(CC3)[C@H](O)C2)CCN1c1cccc(-c2ccccc2)c1 (stereo partly drawn) [Example 90, 4-Biphenyl-3-yl-1-[3-((S)-4-hydroxy-6-aza-spiro[2.5]oct-6-yl)-propyl]-3-methyl-piperazin-2-one] | 508
CC1CN(C(CO)CCN2CCC3(CC3)[C@H](O)C2)C(=O)CCN1c1ccc(Cl)c(Cl)c1 (stereo in doubt) [Example 69, (R)-1-(3,4-Dichloro-phenyl)-4-[(S)-3-((S)-4-hydroxy-6-aza-spiro[2.5]oct-6-yl)-1-hydroxymethyl-propyl]-2-methyl-[1,4]diazepan-5-one] | 11
CC1C(=O)N(CC[C@H](O)CN2CCC3(CC3)[C@H](O)C2)CCN1c1ccc(Cl)c(Cl)c1 (stereo partly drawn) [Example 107, 4-(3,4-Dichloro-phenyl)-1-[(S)-3-hydroxy-4-((S)-4-hydroxy-6-aza-spiro[2.5]oct-6-yl)-butyl]-3-methyl-piperazin-2-one] | 15
COC(=O)[C@H](CCN1CCC2(CC2)[C@H](O)C1)N1C[C@@H](C)N(c2ccc(Cl)c(Cl)c2)CCC1=O [Example 65, (S)-2-[(R)-4-(3,4-dichloro-phenyl)-3-methyl-7-oxo-[1,4]diazepan-1-yl]-4-((S)-4-hydroxy-6-aza-spiro[2.5]oct-6-yl)-butyric acid methyl ester] | 16
NC(=O)[C@H](CCN1CCC2(CC2)[C@H](O)C1)N1CCN(c2ccc(Cl)c(Cl)c2)CCC1=O [Example 64, (S)-2-[4-(3,4-Dichloro-phenyl)-7-oxo-[1,4]diazepan-1-yl]-4-((S)-4-hydroxy-6-aza-spiro[2.5]oct-6-yl)-butyramide] | 663
C[C@H]1C(=O)N(CCCN2CCC3(CC3)[C@H](O)C2)CCN1c1ccc(C(F)(F)F)cc1 [Example 96, (S)-1-[3-((S)-4-Hydroxy-6-aza-spiro[2.5]oct-6-yl)-propyl]-3-methyl-4-(4-trifluoromethyl-phenyl)-piperazin-2-one] | 26
C[C@H]1C(=O)N(CCCCN2CCC3(CC3)[C@H](O)C2)CCN1c1ccc(Cl)c(Cl)c1 [Example 94, (S)-4-(3,4-Dichloro-phenyl)-1-[4-((S)-4-hydroxy-6-aza-spiro[2.5]oct-6-yl)-butyl]-3-methyl-piperazin-2-one] | 8
CN(C(=O)[C@H](CCN1CCC2(CC2)[C@H](O)C1)N1CCN(c2ccc(Cl)c(Cl)c2)CCC1=O)C1CC1 [Example 62, (S)—N-Cyclopropyl-2-[4-(3,4-dichloro-phenyl)-7-oxo-[1,4]diazepan-1-yl]-4-((S)-4-hydroxy-6-aza-spiro[2.5]oct-6-yl)-N-methyl-butyramide] | 330
C[C@H]1C(=O)N(CCCN2CCC3(CC3)[C@H](O)C2)CCN1c1cccc(OC(F)(F)F)c1 [Example 45, (S)-1-[3-((S)-4-Hydroxy-6-aza-spiro[2.5]oct-6-yl)-propyl]-3-methyl-4-(3-trifluoromethoxy-phenyl)-piperazin-2-one] | 10
COC(=O)C(CCN1CCC2(CC2)[C@H](O)C1)N1CCN(c2cccc(C(F)(F)F)c2)C(C)C1=O (stereo partly drawn) [Example 54, 4-((S)-4-Hydroxy-6-aza-spiro[2.5]oct-6-yl)-2-[3-methyl-2-oxo-4-(3-trifluoromethyl-phenyl)-piperazin-1-yl]-butyric acid methyl ester] | 10
CN(C)C(=O)C(CCN1CCC2(CC2)[C@H](O)C1)N1CCN(c2cccc(C(F)(F)F)c2)CCC1=O (stereo partly drawn) [Example 17, (R,S)-4-((S)-4-Hydroxy-6-aza-spiro[2.5]oct-6-yl)-N,N-dimethyl-2-[7-oxo-4-(3-trifluoromethyl-phenyl)-[1,4]diazepan-1-yl]-butyramide] | 140
O=C1CCN(c2ccc(C(F)(F)F)cc2)CCN1[C@H](CO)CCN1CCC2(CC2)[C@H](O)C1 [Example 20, 4-[(S)-3-((S)-4-Hydroxy-6-aza-spiro[2.5]oct-6-yl)-1-hydroxymethyl-propyl]-1-(4-trifluoromethyl-phenyl)-[1,4]diazepan-5-one] | 350
CC1CN([C@@H](CO)CCN2CCC3(CC3)[C@H](O)C2)C(=O)CCN1c1ccc(Cl)c(Cl)c1 (mixture of isomers) [Example 68, (R,S)-1-(3,4-Dichloro-phenyl)-4-[(S)-3-((S)-4-hydroxy-6-aza-spiro[2.5]oct-6-yl)-1-hydroxymethyl-propyl]-2-methyl-[1,4]diazepan-5-one] | 46
COC(=O)[C@H](CCN1CCC2(CC2)[C@H](O)C1)N1CC(C)N(c2ccc(Cl)c(Cl)c2)CCC1=O (mixture of isomers) [Example 67, (S)-2-[(R,S)-4-(3,4-dichloro-phenyl)-3-methyl-7-oxo-[1,4]diazepan-1-yl]-4-((S)-4-hydroxy-6-aza-spiro[2.5]oct-6-yl)-butyric acid methyl ester] | 52
C[C@H]1C(=O)N(CCCCN2CCC3(CC3)[C@H](O)C2)CCN1c1cccc(OC(F)(F)F)c1 [Example 95, (S)-1-[4-((S)-4-Hydroxy-6-aza-spiro[2.5]oct-6-yl)-butyl]-3-methyl-4-(3-trifluoromethoxy-phenyl)-piperazin-2-one] | 13
CN(C)C(=O)C(CCCN1CCC(C)(O)CC1)N1CCN(c2cccc(C(F)(F)F)c2)CCC1=O (racemic) [Example 25, (rac)-5-(4-Hydroxy-4-methyl-piperidin-1-yl)-2-[7-oxo-4-(3-trifluoromethyl-phenyl)-[1,4]diazepan-1-yl]-pentanoic acid dimethylamide] | 200
